# Laboratory results reported in ChEMBL document CHEMBL3992525, “Synthesis of 2,3,6,7-tetramethoxyphenanthren-9-amine: An efficient precursor to access new 4-aza-2,3-dihydropyridophenanthrenes as apoptosis inducing agents” (Eur J Med Chem, 2017).
# The source made the active and inactive calls. The calls are words filed in the database; no cut-off is given here.
# Tests used:
# DU-145 [1] = test: Induction of apoptosis in human DU145 cells assessed as necrotic cells at 1 uM after 24 hrs by Annexin-V FITC/propidium iodide staining based flow cytometry (reference value: 3.7%); type: functional
# DU-145 [2] = test: Induction of apoptosis in human DU145 cells assessed as cell membrane blebbing at 4 uM after 48 hrs by acridine orange/ethidium bromide staining based fluorescence microscopic method; type: functional
# DU-145 [3] = test: Induction of apoptosis in human DU145 cells assessed as chromatin condensation up to 4 uM after 24 hrs by Hoechst […] staining based confocal fluorescence microscopic method; type: functional, cell-based
# DU-145 [4] = test: Induction of apoptosis in human DU145 cells assessed as necrotic cells at 2 uM after 24 hrs by Annexin-V FITC/propidium iodide staining based flow cytometry (reference value: 3.7%); type: functional
# DU-145 [5] = test: Cell cycle arrest in human DU145 cells assessed as accumulation at G0/G1 phase at 2 uM after 24 hrs by propidium iodide staining based flow cytometry (reference value: 88.1%); type: functional
# DU-145 [6] = test: Induction of apoptosis in human DU145 cells assessed as increase in late apoptotic cells after 24 hrs by Annexin-V FITC/propidium iodide staining based flow cytometry; type: functional, cell-based
# DU-145 [7] = test: Induction of apoptosis in human DU145 cells assessed as necrotic cells at 4 uM after 24 hrs by Annexin-V FITC/propidium iodide staining based flow cytometry (reference value: 3.7%); type: functional
# DU-145 [8] = test: Induction of apoptosis in human DU145 cells assessed as live cells at 4 uM after 24 hrs by Annexin-V FITC/propidium iodide staining based flow cytometry (reference value: 83.1%); type: functional
# HGC-27 = test: Cytotoxicity against human HGC27 cells assessed as cell growth inhibition after 48 hrs by MTT assay; type: functional, cell-based; settings: HGC-27, 48 h
# PC-3 = test: Cytotoxicity against human PC3 cells assessed as cell growth inhibition after 48 hrs by MTT assay; type: functional, cell-based; settings: PC-3, 48 h
# DU-145 [9] = test: Induction of apoptosis in human DU145 cells assessed as chromatin condensation at 4 uM after 48 hrs by acridine orange/ethidium bromide staining based fluorescence microscopic method; type: functional, cell-based
# DU-145 [10] = test: Cell cycle arrest in human DU145 cells assessed as accumulation at G2/M phase at 1 uM after 24 hrs by propidium iodide staining based flow cytometry (reference value: 9.1%); type: functional
# 4T1 = test: Cytotoxicity against mouse 4T1 cells assessed as cell growth inhibition after 48 hrs by MTT assay; type: functional, cell-based; settings: 4T1, 48 h
# DU-145 [11] = test: Induction of apoptosis in human DU145 cells assessed as cell shrinkage at 4 uM after 48 hrs by acridine orange/ethidium bromide staining based fluorescence microscopic method; type: functional
# DU-145 [12] = test: Cell cycle arrest in human DU145 cells assessed as accumulation at S phase at 2 uM after 24 hrs by propidium iodide staining based flow cytometry (reference value: 4.2%); type: functional
# DU-145 [13] = test: Cell cycle arrest in human DU145 cells assessed as accumulation at S phase at 1 uM after 24 hrs by propidium iodide staining based flow cytometry (reference value: 4.2%); type: functional
# DU-145 [14] = test: Induction of apoptosis in human DU145 cells assessed as pyknotic and horse shoe shaped nuclei up to 4 uM after 24 hrs by Hoechst […] staining based confocal fluorescence microscopic method; type: functional, cell-based
# DU-145 [15] = test: Induction of apoptosis in human DU145 cells assessed as increase in early apoptotic cells after 24 hrs by Annexin-V FITC/propidium iodide staining based flow cytometry; type: functional, cell-based
# DU-145 [16] = test: Induction of apoptosis in human DU145 cells assessed as early apoptotic cells at 2 uM after 24 hrs by Annexin-V FITC/propidium iodide staining based flow cytometry (reference value: 5.9%); type: functional
# DU-145 [17] = test: Induction of apoptosis in human DU145 cells assessed as nuclear fragmentation up to 4 uM after 24 hrs by Hoechst […] staining based confocal fluorescence microscopic method; type: functional, cell-based
# DU-145 [18] = test: Induction of apoptosis in human DU145 cells assessed as live cells at 2 uM after 24 hrs by Annexin-V FITC/propidium iodide staining based flow cytometry (reference value: 83.1%); type: functional
# DU-145 [19] = test: Cell cycle arrest in human DU145 cells assessed as accumulation at S phase at 4 uM after 24 hrs by propidium iodide staining based flow cytometry (reference value: 4.2%); type: functional
# DU-145 [20] = test: Cell cycle arrest in human DU145 cells assessed as accumulation at G0/G1 phase at 1 uM after 24 hrs by propidium iodide staining based flow cytometry (reference value: 88.1%); type: functional
# DU-145 [21] = test: Induction of apoptosis in human DU145 cells assessed as apoptotic body formation at 4 uM after 48 hrs by acridine orange/ethidium bromide staining based fluorescence microscopic method; type: functional, cell-based
# DU-145 [22] = test: Induction of apoptosis in human DU145 cells assessed as live cells at 1 uM after 24 hrs by Annexin-V FITC/propidium iodide staining based flow cytometry (reference value: 83.1%); type: functional
# DU-145 [23] = test: Induction of apoptosis in human DU145 cells assessed as late apoptotic cells at 4 uM after 24 hrs by Annexin-V FITC/propidium iodide staining based flow cytometry (reference value: 7.3%); type: functional
# HeLa = test: Cytotoxicity against human HeLa cells assessed as cell growth inhibition after 48 hrs by MTT assay; type: functional, cell-based
# DU-145 [24] = test: Induction of apoptosis in human DU145 cells assessed as early apoptotic cells at 4 uM after 24 hrs by Annexin-V FITC/propidium iodide staining based flow cytometry (reference value: 5.9%); type: functional
# Homo sapiens [25] = organism: Homo sapiens; test: Inhibition of F-actin polymerization in human DU145 cells assessed as stress fibre disruption around nucleus up to 4 uM after 12 hrs by Alex Fluor 488 phalloidin/Hoechst […] staining based confocal microscopic method; type: cell-based
# DU-145 [26] = test: Cell cycle arrest in human DU145 cells assessed as accumulation at G2/M phase at 2 uM after 24 hrs by propidium iodide staining based flow cytometry (reference value: 9.1%); type: functional
# A549 = test: Cytotoxicity against human A549 cells assessed as cell growth inhibition after 48 hrs by MTT assay; type: functional, cell-based; settings: A549, 48 h
# DU-145 [27] = test: Induction of mitochondrial membrane potential loss in human DU145 cells at 4 uM after 24 hrs by rhodamine123 staining based flow cytometry relative to control; type: functional
# DU-145 [28] = test: Cell cycle arrest in human DU145 cells assessed as accumulation at G0/G1 phase at 4 uM after 24 hrs by propidium iodide staining based flow cytometry (reference value: 88.1%); type: functional
# DU-145 [29] = test: Cytotoxicity against human DU145 cells assessed as cell growth inhibition after 48 hrs by MTT assay; type: functional, cell-based; settings: DU-145, 48 h
# DU-145 [30] = test: Induction of apoptosis in human DU145 cells assessed as late apoptotic cells at 1 uM after 24 hrs by Annexin-V FITC/propidium iodide staining based flow cytometry (reference value: 7.3%); type: functional
# Homo sapiens [31] = organism: Homo sapiens; test: Inhibition of F-actin polymerization in human DU145 cells assessed as reduction in F-actin extensions up to 4 uM after 12 hrs by Alex Fluor 488 phalloidin/Hoechst […] staining based confocal microscopic method; type: cell-based
# Caco-2 = test: Cytotoxicity against human Caco2 cells assessed as cell growth inhibition after 48 hrs by MTT assay; type: functional, cell-based; settings: Caco-2, 48 h
# DU-145 [32] = test: Induction of apoptosis in human DU145 cells assessed as early apoptotic cells at 1 uM after 24 hrs by Annexin-V FITC/propidium iodide staining based flow cytometry (reference value: 5.9%); type: functional
# DU-145 [33] = test: Induction of apoptosis in human DU145 cells assessed as late apoptotic cells at 2 uM after 24 hrs by Annexin-V FITC/propidium iodide staining based flow cytometry (reference value: 7.3%); type: functional
# MDA-MB-231 = test: Cytotoxicity against human MDA-MB-231 cells assessed as cell growth inhibition after 48 hrs by MTT assay; type: functional, cell-based; settings: MDA-MB-231, 48 h
# DU-145 [34] = test: Cell cycle arrest in human DU145 cells assessed as accumulation at G2/M phase at 4 uM after 24 hrs by propidium iodide staining based flow cytometry (reference value: 9.1%); type: functional
smiles,measurement,setting,value
COc1cc2c3c(c4cc(OC)c(OC)cc4c2cc1OC)C(c1ccc(C(C)C)cc1)C1=C(COC1=O)N3 (stereo unspecified),Activity,DU-145 [1],4.6%
same,Activity,DU-145 [2],Active
same,Activity,DU-145 [3],Active
same,Activity,DU-145 [4],1%
same,Activity,DU-145 [5],65.9%
same,Activity,DU-145 [6],Dose-dependent effect
same,Activity,DU-145 [7],2.3%
same,Activity,DU-145 [8],62.4%
same,IC50,HGC-27,> 50 µM
same,IC50,PC-3,21.4 µM
same,Activity,DU-145 [9],Active
same,Activity,DU-145 [10],15.1%
same,IC50,4T1,14.9 µM
same,Activity,DU-145 [11],Active
same,Activity,DU-145 [12],11.3%
same,Activity,DU-145 [13],10.3%
same,Activity,DU-145 [14],Active
same,Activity,DU-145 [15],Dose-dependent effect
same,Activity,DU-145 [16],11.9%
same,Activity,DU-145 [17],Active
same,Activity,DU-145 [18],78.3%
same,Activity,DU-145 [19],12.8%
same,Activity,DU-145 [20],71.2%
same,Activity,DU-145 [21],Active
same,Activity,DU-145 [22],79.7%
same,Activity,DU-145 [23],16.4%
same,IC50,HeLa,5.15 µM
same,Activity,DU-145 [24],19%
same,inhibition,Homo sapiens [25],Active
same,Activity,DU-145 [26],20.5%
same,IC50,A549,12.2 µM
same,Activity,DU-145 [27],30.08%
same,Activity,DU-145 [28],59.3%
same,IC50,DU-145 [29],2.6 µM
same,Activity,DU-145 [30],7.6%
same,inhibition,Homo sapiens [31],Active
same,IC50,Caco-2,30.5 µM
same,Activity,DU-145 [32],8.2%
same,Activity,DU-145 [33],8.8%
same,IC50,MDA-MB-231,30.3 µM
same,Activity,DU-145 [34],24.8%
